{"source": "ChEMBL document CHEMBL4311992", "about": "“Discovery of 3-(((9H-purin-6-yl)amino)methyl)-4,6-dimethylpyridin-2(1H)-one derivatives as novel tubulin polymerization inhibitors for treatment of cancer” (Eur J Med Chem, 2019)", "key": {"[1]": {"target": "Calcium/calmodulin-dependent protein kinase type 1B (Homo sapiens) (UniProt Q6P2M8)", "experiment": "Inhibition of recombinant full-length human CaMK1beta assessed as residual activity at 10 uM using calmodulin as substrate measured after 40 mins in presence of [gamma33P]ATP by scintillation counting method"}, "[2]": {"target": "Mitogen-activated protein kinase kinase kinase 9 (Homo sapiens) (UniProt P80192)", "sequence (P80192 whole entry, looked up, the tested form may be a part)": "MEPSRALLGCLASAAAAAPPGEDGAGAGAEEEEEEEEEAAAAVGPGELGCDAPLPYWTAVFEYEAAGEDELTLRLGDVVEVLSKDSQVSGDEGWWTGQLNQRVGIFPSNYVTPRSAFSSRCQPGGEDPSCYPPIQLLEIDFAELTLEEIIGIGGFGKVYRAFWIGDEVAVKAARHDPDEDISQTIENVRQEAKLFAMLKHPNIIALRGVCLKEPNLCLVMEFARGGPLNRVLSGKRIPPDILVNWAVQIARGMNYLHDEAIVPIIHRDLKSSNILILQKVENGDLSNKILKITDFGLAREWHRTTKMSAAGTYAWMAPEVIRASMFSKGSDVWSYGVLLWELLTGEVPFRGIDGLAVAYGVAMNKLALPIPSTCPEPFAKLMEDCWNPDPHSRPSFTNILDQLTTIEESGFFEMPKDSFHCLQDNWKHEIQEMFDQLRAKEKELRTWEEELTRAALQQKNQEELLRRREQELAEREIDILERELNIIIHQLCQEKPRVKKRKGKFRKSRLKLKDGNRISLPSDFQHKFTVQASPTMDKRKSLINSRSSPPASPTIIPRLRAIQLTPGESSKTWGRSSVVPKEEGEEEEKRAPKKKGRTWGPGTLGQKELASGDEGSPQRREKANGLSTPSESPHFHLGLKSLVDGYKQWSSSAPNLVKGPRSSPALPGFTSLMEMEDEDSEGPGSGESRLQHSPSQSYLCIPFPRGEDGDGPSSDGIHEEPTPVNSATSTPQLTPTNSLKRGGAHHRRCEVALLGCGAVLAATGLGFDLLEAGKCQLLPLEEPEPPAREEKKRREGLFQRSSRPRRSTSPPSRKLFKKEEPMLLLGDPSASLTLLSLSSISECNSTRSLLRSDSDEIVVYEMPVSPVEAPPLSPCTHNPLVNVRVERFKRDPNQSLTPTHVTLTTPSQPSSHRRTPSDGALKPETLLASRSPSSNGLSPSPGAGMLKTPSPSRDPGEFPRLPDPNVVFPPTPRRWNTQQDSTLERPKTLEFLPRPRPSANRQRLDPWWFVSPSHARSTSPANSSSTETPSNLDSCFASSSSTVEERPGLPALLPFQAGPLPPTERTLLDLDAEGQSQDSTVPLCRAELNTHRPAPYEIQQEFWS", "experiment": "Inhibition of recombinant human MLK1 (134 to 414 residues) assessed as residual activity at 10 uM using casein as substrate measured after 40 mins in presence of [gamma33P]ATP by scintillation counting method"}, "[3]": {"tested_on": "Eukaryotic elongation factor 2 kinase (Homo sapiens), O00418 [H23R]", "sequence (O00418 whole entry H23R)": "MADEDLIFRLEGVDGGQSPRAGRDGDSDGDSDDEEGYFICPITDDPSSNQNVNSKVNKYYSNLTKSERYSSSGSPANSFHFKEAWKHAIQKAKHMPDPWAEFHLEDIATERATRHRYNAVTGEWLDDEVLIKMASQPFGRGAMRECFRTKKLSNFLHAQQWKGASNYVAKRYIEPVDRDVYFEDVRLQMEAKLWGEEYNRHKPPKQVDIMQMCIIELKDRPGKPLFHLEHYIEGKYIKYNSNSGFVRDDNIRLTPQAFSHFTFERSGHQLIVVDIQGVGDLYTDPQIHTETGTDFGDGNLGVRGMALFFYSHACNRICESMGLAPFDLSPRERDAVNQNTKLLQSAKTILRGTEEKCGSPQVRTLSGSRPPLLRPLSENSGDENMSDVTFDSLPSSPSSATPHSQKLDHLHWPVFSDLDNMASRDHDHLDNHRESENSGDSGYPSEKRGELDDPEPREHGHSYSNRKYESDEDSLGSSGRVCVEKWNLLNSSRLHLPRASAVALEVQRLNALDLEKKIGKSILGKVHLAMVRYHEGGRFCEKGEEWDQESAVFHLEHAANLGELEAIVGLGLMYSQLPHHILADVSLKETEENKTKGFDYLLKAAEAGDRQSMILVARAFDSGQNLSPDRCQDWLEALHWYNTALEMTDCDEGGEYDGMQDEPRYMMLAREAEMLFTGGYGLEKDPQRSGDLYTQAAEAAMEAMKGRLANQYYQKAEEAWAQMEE", "experiment": "Inhibition of recombinant human EEF2K H23R mutant (2 to end residues) assessed as residual activity at 10 uM using RKKFGESEKTKTKEFL as substrate measured after 40 mins in presence of [gamma33P]ATP by scintillation counting method"}, "[4]": {"tested_on": "Epidermal growth factor receptor (Homo sapiens), P00533 [L861Q]", "experiment": "Inhibition of recombinant human EGFR L861Q mutant (696 to end residues) assessed as residual activity at 10 uM using poly(Glu, Tyr) 4:1 as substrate measured after 40 mins in presence of [gamma33P]ATP by scintillation counting method"}, "Homo sapiens": {"species": "Homo sapiens", "experiment": "Inhibition of recombinant full-length human PI3K p110alpha/p65alpha (1 to 571 residues) assessed as residual activity at 10 uM using phosphatidylinositol-4, 5-bisphosphate as substrate measured after 40 mins by HTRF assay"}, "[5]": {"tested_on": "Hepatocyte growth factor receptor (Homo sapiens), P08581 [Y1230C]", "experiment": "Inhibition of recombinant human MET A1209G/V1290L/Y1248C mutant (974 to end residues) assessed as residual activity at 10 uM using KKKGQEEEYVFIE as substrate measured after 40 mins in presence of [gamma33P]ATP by scintillation counting method"}, "Tubulin (Homo sapiens)": {"target": "Tubulin (Homo sapiens) (UniProt P68371+Q9H4B7+P0DPH7+P68366+Q13509+Q71U36+P04350+Q3ZCM7+P07437+P68363+Q9BQE3+Q6PEY2+Q13885+Q9BVA1+Q9BUF5)", "experiment": "Disruption of microtubule network in human HCT116 cells assessed as microtubule disorganization at 50 nM for 18 hrs by FITC/DAPI staining-based confocal microscopic analysis", "type": "cell-based"}, "[6]": {"target": "cGMP-dependent protein kinase 1 (Homo sapiens) (UniProt Q13976)", "sequence (Q13976 whole entry)": "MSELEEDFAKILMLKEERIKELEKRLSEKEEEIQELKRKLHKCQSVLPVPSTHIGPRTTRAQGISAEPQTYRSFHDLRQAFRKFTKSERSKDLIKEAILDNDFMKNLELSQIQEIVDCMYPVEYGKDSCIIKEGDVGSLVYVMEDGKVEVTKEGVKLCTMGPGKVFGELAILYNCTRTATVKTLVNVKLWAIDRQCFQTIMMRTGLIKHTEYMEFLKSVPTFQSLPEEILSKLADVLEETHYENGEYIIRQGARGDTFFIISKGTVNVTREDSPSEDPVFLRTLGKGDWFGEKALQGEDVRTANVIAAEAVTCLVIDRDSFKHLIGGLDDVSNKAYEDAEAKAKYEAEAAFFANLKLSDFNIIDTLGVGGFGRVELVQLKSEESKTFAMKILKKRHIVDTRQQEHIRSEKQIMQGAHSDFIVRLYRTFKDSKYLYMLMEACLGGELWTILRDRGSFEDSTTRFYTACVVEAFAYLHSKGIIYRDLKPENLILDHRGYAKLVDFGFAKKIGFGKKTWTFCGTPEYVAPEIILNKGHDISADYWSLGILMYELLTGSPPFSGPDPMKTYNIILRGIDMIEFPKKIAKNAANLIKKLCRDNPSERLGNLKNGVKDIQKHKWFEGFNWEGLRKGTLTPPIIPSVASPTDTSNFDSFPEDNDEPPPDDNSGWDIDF", "experiment": "Inhibition of recombinant full-length human PKG1beta assessed as residual activity at 10 uM using RRRLSFAEPG as substrate measured after 40 mins in presence of [gamma33P]ATP by scintillation counting method"}, "[7]": {"target": "CDK17/Cyclin-Y (Homo sapiens) (UniProt Q00537+Q8ND76)", "sequence (Q00537 whole entry)": "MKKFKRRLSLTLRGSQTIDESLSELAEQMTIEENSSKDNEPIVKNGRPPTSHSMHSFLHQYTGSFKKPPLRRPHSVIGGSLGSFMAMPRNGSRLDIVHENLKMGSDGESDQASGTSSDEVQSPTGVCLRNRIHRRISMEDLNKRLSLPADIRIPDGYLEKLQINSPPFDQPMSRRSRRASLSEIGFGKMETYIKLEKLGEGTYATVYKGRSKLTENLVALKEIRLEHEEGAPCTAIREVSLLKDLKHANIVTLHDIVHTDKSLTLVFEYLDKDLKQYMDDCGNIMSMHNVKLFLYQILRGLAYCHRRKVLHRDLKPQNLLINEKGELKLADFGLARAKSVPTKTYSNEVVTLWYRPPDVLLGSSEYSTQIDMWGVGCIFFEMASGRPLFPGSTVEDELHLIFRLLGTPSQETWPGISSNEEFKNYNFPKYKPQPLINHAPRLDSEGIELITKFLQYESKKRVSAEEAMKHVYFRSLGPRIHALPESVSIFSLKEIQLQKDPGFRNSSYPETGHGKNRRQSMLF", "sequence (Q8ND76 2-341 partner limits assumed)": "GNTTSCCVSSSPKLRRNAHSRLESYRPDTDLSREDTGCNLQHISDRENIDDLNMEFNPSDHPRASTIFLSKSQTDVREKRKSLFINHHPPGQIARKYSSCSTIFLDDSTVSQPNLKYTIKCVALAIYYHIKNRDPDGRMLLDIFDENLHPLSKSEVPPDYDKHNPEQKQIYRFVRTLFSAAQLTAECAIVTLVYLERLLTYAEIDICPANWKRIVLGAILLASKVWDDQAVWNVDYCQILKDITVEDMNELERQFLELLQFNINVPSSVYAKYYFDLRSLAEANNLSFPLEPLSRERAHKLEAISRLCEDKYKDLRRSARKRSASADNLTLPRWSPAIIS", "experiment": "Inhibition of human CDK17/cyclinY assessed as residual activity at 10 uM using PKSPKARKKL as substrate measured after 120 mins in presence of [gamma33P]ATP by scintillation counting method", "type": "protein-complex assay"}, "[8]": {"target": "Protein kinase C theta type (Homo sapiens) (UniProt Q04759)", "experiment": "Inhibition of recombinant full-length human PKCtheta assessed as residual activity at 10 uM using histone H1as substrate measured after 40 mins in presence of [gamma33P]ATP by scintillation counting method"}, "[9]": {"target": "Homeodomain-interacting protein kinase 4 (Homo sapiens) (UniProt Q8NE63)", "experiment": "Inhibition of recombinant full-length human HIPK4 assessed as residual activity at 10 uM using RRRFRPASPLRGPPK as substrate measured after 40 mins in presence of [gamma33P]ATP by scintillation counting method"}, "[10]": {"target": "Tyrosine-protein kinase TXK (Homo sapiens) (UniProt P42681)", "experiment": "Inhibition of human Txk (256 to end residues) using GEEPLYWSFPAKKK as substrate measured after 40 mins in presence of [gamma33P]ATP by scintillation counting method", "parameters": "scale not given: the % may be the effect or the level left"}, "[11]": {"target": "3-phosphoinositide-dependent protein kinase 1 (Homo sapiens) (UniProt O15530)", "sequence (O15530 whole entry)": "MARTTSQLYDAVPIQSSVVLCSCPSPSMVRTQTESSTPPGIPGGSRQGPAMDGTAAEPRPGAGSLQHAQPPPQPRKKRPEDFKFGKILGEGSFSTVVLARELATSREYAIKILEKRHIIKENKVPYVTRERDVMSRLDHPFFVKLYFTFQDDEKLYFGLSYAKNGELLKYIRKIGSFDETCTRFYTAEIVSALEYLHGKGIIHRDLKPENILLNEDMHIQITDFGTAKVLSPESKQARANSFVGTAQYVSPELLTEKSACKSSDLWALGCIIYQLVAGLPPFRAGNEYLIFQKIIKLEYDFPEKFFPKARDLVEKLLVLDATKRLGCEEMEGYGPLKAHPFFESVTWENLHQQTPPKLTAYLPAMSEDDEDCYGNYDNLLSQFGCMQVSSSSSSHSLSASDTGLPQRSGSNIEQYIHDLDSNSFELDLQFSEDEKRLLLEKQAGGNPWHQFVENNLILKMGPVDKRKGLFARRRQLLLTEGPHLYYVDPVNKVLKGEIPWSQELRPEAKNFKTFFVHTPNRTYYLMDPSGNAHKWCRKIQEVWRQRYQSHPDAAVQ", "experiment": "Inhibition of recombinant human PDK1 (52 to end residues) assessed as residual activity at 10 uM using PDKtide as substrate measured after 40 mins in presence of [gamma33P]ATP by scintillation counting method"}, "[12]": {"experiment": "Renal toxicity in nude BALB/c mouse at 80 mg/kg, po administered once daily for 4 weeks measured post-last dose by hematoxylin and eosin staining-based assay", "type": "organism-based", "details": "in vivo, 672 h"}, "[13]": {"target": "Cyclin-dependent kinase-like 1 (Homo sapiens) (UniProt Q00532)", "sequence (Q00532 whole entry, the tested form may be a part)": "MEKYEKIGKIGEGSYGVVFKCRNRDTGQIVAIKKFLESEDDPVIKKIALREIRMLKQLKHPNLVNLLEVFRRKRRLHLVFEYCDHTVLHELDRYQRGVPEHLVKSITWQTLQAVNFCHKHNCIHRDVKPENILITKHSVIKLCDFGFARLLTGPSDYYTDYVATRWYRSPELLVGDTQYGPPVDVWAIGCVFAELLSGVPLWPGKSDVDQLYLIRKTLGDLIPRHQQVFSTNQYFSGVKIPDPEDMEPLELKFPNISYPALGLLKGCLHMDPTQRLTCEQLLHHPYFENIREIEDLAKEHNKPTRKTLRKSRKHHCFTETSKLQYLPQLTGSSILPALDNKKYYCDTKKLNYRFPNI", "experiment": "Inhibition of recombinant human CDKL1 (1 to 303 residues) assessed as residual activity at 10 uM using RRRFRPASPLRGP as substrate measured after 120 mins in presence of [gamma33P]ATP by scintillation counting method"}, "[14]": {"target": "Mitogen-activated protein kinase 13 (Homo sapiens) (UniProt O15264)", "experiment": "Inhibition of recombinant full-length human SAPK4 assessed as residual activity at 10 uM using myelin basic protein as substrate measured after 40 mins in presence of [gamma33P]ATP by scintillation counting method"}, "[15]": {"target": "Protein kinase C epsilon type (Homo sapiens) (UniProt Q02156)", "experiment": "Inhibition of recombinant human PKCepsilon (2 to end residues) assessed as residual activity at 10 uM using ERMRPRKRQGSVRRRV as substrate measured after 40 mins in presence of [gamma33P]ATP by scintillation counting method"}, "[16]": {"target": "Rhodopsin kinase GRK1 (Homo sapiens) (UniProt Q15835)", "sequence (Q15835 whole entry)": "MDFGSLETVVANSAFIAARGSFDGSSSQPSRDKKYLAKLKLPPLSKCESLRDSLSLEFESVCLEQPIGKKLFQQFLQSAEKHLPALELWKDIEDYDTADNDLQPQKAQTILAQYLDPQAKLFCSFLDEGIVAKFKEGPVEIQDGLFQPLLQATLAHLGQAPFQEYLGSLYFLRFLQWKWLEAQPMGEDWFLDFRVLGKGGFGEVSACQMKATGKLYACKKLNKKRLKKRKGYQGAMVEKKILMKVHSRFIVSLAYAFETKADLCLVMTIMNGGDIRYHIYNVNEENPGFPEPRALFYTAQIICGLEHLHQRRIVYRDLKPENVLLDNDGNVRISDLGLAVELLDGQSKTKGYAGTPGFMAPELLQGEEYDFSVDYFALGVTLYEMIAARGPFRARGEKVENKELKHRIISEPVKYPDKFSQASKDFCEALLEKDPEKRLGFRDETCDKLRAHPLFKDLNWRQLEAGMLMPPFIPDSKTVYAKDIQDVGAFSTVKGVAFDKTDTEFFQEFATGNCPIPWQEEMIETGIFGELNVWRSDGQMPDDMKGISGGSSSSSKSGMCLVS", "experiment": "Inhibition of recombinant full-length human GRK1 assessed as residual activity at 10 uM using KKKKERLLDDRHDSGLDSMKDEE as substrate measured after 40 mins in presence of [gamma33P]ATP by scintillation counting method"}, "[17]": {"target": "Serine/threonine-protein kinase pim-1 (Homo sapiens) (UniProt P11309)", "experiment": "Inhibition of recombinant full-length human Pim1 assessed as residual activity at 10 uM using KKRNRTLTV as substrate measured after 40 mins in presence of [gamma33P]ATP by scintillation counting method"}, "[18]": {"target": "Histone-lysine N-methyltransferase EZH2 (Homo sapiens) (UniProt Q15910)", "experiment": "Inhibition of EZH2 (unknown origin) at 1 uM relative to control"}, "[19]": {"target": "PI3-kinase p110-alpha/p85-alpha (Homo sapiens) (UniProt P27986+P42336)", "experiment": "Inhibition of recombinant full-length human PI3K p110alpha/p85alpha assessed as residual activity at 10 uM using phosphatidylinositol-4, 5-bisphosphate as substrate measured after 40 mins by fluorescence assay", "type": "protein-complex assay"}, "[20]": {"tested_on": "Fibroblast growth factor receptor 2 (Homo sapiens), P21802 [N549H]", "experiment": "Inhibition of recombinant human FGFR2 N549H mutant (456 to 770 residues) assessed as residual activity at 10 uM using GGEEEEYFELVKKKK as substrate measured after 40 mins in presence of [gamma33P]ATP by scintillation counting method"}, "HCT-116": {"tested_on": "HCT-116", "experiment": "Induction of apoptosis in human HCT116 cells assessed as viable cells at 100 nM measured after 48 hrs by Annexin V-FITC/propidium iodide staining-based flow cytometry (reference value: 94.5%)", "type": "functional", "details": "HCT-116, 48 h, read-out: Activity"}}, "note": "Calls of active or inactive are those of the source. The calls are words filed in the database; no cut-off is given here.", "data": [{"smiles": "Cc1cc(C)c(CNc2nc(Cl)nc3c2ncn3C2CCCC2)c(=O)[nH]1", "values": [{"measurement": "Activity", "setting": "[1]", "result": 107, "unit": "%"}, {"measurement": "Activity", "setting": "[2]", "result": 104, "unit": "%"}, {"measurement": "Activity", "setting": "[3]", "result": 104, "unit": "%"}, {"measurement": "Activity", "setting": "[4]", "result": 98.5, "unit": "%"}, {"measurement": "Activity", "setting": "Homo sapiens", "result": 93, "unit": "%"}, {"measurement": "Activity", "setting": "[5]", "result": 110, "unit": "%"}, {"measurement": "Activity", "setting": "Tubulin (Homo sapiens)", "result": "Active"}, {"measurement": "Activity", "setting": "[6]", "result": 112, "unit": "%"}, {"measurement": "Activity", "setting": "[7]", "result": 102, "unit": "%"}, {"measurement": "Activity", "setting": "[8]", "result": 103, "unit": "%"}, {"measurement": "Activity", "setting": "[9]", "result": 110, "unit": "%"}, {"measurement": "Activity", "setting": "[10]", "result": 84, "unit": "%"}, {"measurement": "Activity", "setting": "[11]", "result": 91, "unit": "%"}, {"measurement": "Activity", "setting": "[12]", "result": "Non-Toxic"}, {"measurement": "Activity", "setting": "[13]", "result": 122, "unit": "%"}, {"measurement": "Activity", "setting": "[14]", "result": 96.5, "unit": "%"}, {"measurement": "Activity", "setting": "[15]", "result": 95, "unit": "%"}, {"measurement": "Activity", "setting": "[16]", "result": 90.5, "unit": "%"}, {"measurement": "Activity", "setting": "[17]", "result": 106, "unit": "%"}, {"measurement": "inhibition", "setting": "[18]", "result": -10, "unit": "%"}, {"measurement": "Activity", "setting": "[19]", "result": 99.5, "unit": "%"}, {"measurement": "Activity", "setting": "[20]", "result": 88, "unit": "%"}, {"measurement": "viability at 0.1 µM", "setting": "HCT-116", "result": 39, "unit": "%"}]}]}
